Experimental data published in paper PMC539285, “Anti-Plasmodium activity of ceramide analogs” (Malaria Journal, 2004).
Read-outs that look alike come from different tables or passages of the source.

Legend:
[1] = tested on: chloroquine-resistant strain FcB1 of P. falciparum; experiment: Anti-Plasmodium activity, [3H]hypoxanthine microdilution on asynchronous cultures; assay type: cell-based, Plasmodium falciparum; conditions: for IC90 / IC50: Plasmodium falciparum; for IC90: 48 h, 90% growth inhibition, read-out: CI90 (the source's name)
Experimental: P. falciparum strains (FcB1/Colombia, K1/Thailand, F32/Tanzania, W2/Indochina) were maintained in continuous culture on human erythrocytes in RPMI medium containing 7% (v/v) heat-inactivated human serum under an atmosphere of 3% CO2, 6% O2, 91% N2, at 37°C, as described by Trager and Jensen. Parasite synchronization was performed successively by treatment with 5% (w/v) sorbitol and by concentration in gelatin solution as previously described.
Drug susceptibility assays were performed using a modification of the semi automated microdilution technique of Desjardins et al.. Stock solutions of test compounds were prepared in DMSO. Drug solutions were serially diluted twofold with 100 μl culture medium in 96-well plates. Asynchronous parasite cultures (100 μl, 1 % parasitemia and 1 % final hematocrite) were added to each well and incubated for 24 hours at 37°C prior to the addition of 0.5 μCi of [^3H] hypoxanthine (Amersham, France, 1 to 5 Ci.mmol/ml) per well. After a further incubation of 24 hour, plates were frozen and thawed. Cell lysates were then collected onto glass-filter papers and counted in a liquid scintillation spectrometer. The growth inhibition for each drug concentration was determined by comparison of the radioactivity incorporated in the treated culture with that in the control culture (having the same final % of DMSO) maintained on the same plate. The concentration causing 50% growth inhibition (IC50) and 90% growth (IC90) were obtained from the drug concentration-response curve and the results were expressed as the means ± the standard deviations determined from several independent experiments.

[2] = Cytotoxicity test upon human embryonic cells (MTT); assay type: cell-based; conditions: human, MRC-5 human diploid embryonic lung cells; MRC-5, five days, MTT; mean of three experiments
Experimental: (§1) A human diploid embryonic lung cell line (MRC-5, Bio-Whittaker 72211D) was used to assess the cytotoxic effects towards eukaryotic host cells. MRC-5 cells were seeded at 5,000 cells per well in 100 μl. After 24 hours, the cells were washed and two-fold dilutions of the drug were added in 200 μl standard culture medium (RPMI medium + 5% fetal calf serum) and maintained for five days under 5% CO2 atmosphere. The final DMSO concentration in the culture remained below 0.1%. Untreated cultures were included as controls. The cytotoxicity was determined using the colorimetric MTT assay according to the manufacturer's recommendations (Cell proliferation kit I, Roche Applied Science, France) and scored as a percentage of reduction in absorption at 540 nm of treated cultures versus untreated control cultures. […] The results were expressed as the mean ± the standard deviations determined from several independent experiments. The index of selectivity was defined as the ratio of the IC50 value on MRC-5 to that of P. falciparum.

human MRC-5 cells = experiment: Cytotoxicity test upon human embryonic cells (MTT); assay type: cell-based; conditions: for IC50: Homo sapiens, MRC5, 120 h, MRC-5, five days, MTT, mean of three experiments; for Index of selectivity: ratio of the IC50 value on MRC-5 cells to that on P. falciparum
Experimental: as §1

[3] = tested on: P. falciparum synchronized cultures; experiment: Parasite stage-specific inhibitory effects and reversibility (Giemsa-stained smears); assay type: cell-based, Plasmodium falciparum; conditions: trophozoite stage, 250 nM (data not shown)
Experimental: Synchronized cultures (1–2% parasitemia) at the ring stage (0–10 hours old parasites), the trophozoite stage (25–35 hours old parasites) and the schizonte stage (40–48 hours old parasites) were maintained in the presence of drug concentrations in the vicinity of IC50 values. Aliquots were removed at the indicated times, washed three times with culture medium and maintained in culture in the absence or in the presence of a given drug. […] Parasitaemias were determined by counting 3,000 cells for each sample. Controls consisted of parasites incubated with DMSO instead of drugs processed in the same way.
To investigate the cytostatic or cytotoxic effects of AD2646 on the parasite development, cultures at the ring stage (0–10 hours), the trophozoite stage (25–35 hours) and the schizonte stage (40–48 hours) were incubated with 30, 100 or 250 nM of AD2646 for 24.5 hours for the ring stage, for 11 hours for the trophozoite stage, and for 14 hours for the schizonte stage. Aliquots were then taken, washed and incubated in the absence or the presence of drug for a further 13 hours to 24 hours depending upon the parasite stage tested (see Figure 5). Parasitaemia and parasite stages were determined on Giemsa-stained smears at time of aliquot removal and after the subsequent incubation.

[4] = Figure 2, series A (amide linkage), strain FcB1
[5] = Figure 2, series A (amide linkage), strain FcB1, read-out: CI50 (the source's name)
[6] = Figure 3, series B, strain FcB1
[7] = Figure 3, series B (methylene or thiourea linkage), strain FcB1, read-out: CI50 (the source's name)
[8] = FCB1, Figure 4, selected derivatives, read-out: IC50

| IC50 [1, 5] | IC50 [1, 7] | SMILES | IC90 [1, 4] | IC90 [1, 6] | further results |
| --- | --- | --- | --- | --- | --- |
| 13.1 µM |  | CCCCCCCC(=O)N[C@H](CO)[C@H](O)c1ccc([N+](=O)[O-])cc1 [AD2494] | 70 µM |  |  |
| 10.8 ± 2.3 µM |  | CCCCCCCCCCCCCCCC(=O)N[C@H](CO)[C@H](O)c1ccc([N+](=O)[O-])cc1 [AD2495] | 20.3 ± 1.4 µM |  |  |
| > 100 µM |  | CCCC(=O)N[C@@H](CO)[C@@H](O)c1ccc([N+](=O)[O-])cc1 [AD2549] |  |  |  |
| 64.1 µM |  | CCCCCCCC(=O)N[C@@H](CO)[C@@H](O)c1ccc([N+](=O)[O-])cc1 [AD2550] | > 100 µM |  |  |
| 16.5 ± 6.5 µM |  | CCCCCCCCCCCC(=O)N[C@H](CO)[C@H](O)c1ccc([N+](=O)[O-])cc1 [AD2552] | 36.3 ± 16.1 µM |  |  |
| 17.2 ± 5.5 µM |  | CCCCCCCCCCCCCC(=O)N[C@H](CO)[C@H](O)c1ccc([N+](=O)[O-])cc1 [AD2557] | 37.8 ± 15.3 µM |  |  |
| 34.3 µM |  | CCCCCCCCCCCCCCCCCC(=O)N[C@H](CO)[C@H](O)c1ccc([N+](=O)[O-])cc1 [AD2558] | > 50 µM |  |  |
| 18.7 ± 6.5 µM |  | CCCCCCCCCCCCCC(=O)N[C@@H](CO)[C@@H](O)c1ccc([N+](=O)[O-])cc1 [AD2560] | 36 ± 18.2 µM |  |  |
| 26.8 µM |  | CCCC(=O)N[C@H](CO)[C@H](O)c1ccc([N+](=O)[O-])cc1 [AD2583] | 67.4 µM |  |  |
| > 100 µM |  | O=C(CCCO)N[C@H](CO)[C@H](O)c1ccc([N+](=O)[O-])cc1 [AD2589] |  |  |  |
| > 100 µM |  | CC(=O)N[C@H](CO)[C@H](O)c1ccc([N+](=O)[O-])cc1 [AD2590] |  |  |  |
| 70.1 µM |  | CCCCCCCC(=O)Nc1ccc([C@@H](O)[C@@H](CO)NC(=O)CCC)cc1 [AD2603] | > 100 µM |  |  |
| 70 µM |  | CCCCCCCCCCCC(=O)Nc1ccc([C@@H](O)[C@@H](CO)NC(=O)CCC)cc1 [AD2604] | > 100 µM |  |  |
| > 100 µM |  | CCCCCCCCCCCCCCCC(=O)Nc1ccc([C@@H](O)[C@@H](CO)NC(=O)CCC)cc1 [AD2605] |  |  |  |
| > 100 µM |  | CCCC(=O)N[C@H](CO)[C@H](O)c1ccc(NC(=O)CCC(=O)O)cc1 [AD2606] |  |  |  |
| > 100 µM |  | CCCC(=O)Nc1ccc([C@@H](O)[C@@H](CO)NC(=O)CCC)cc1 [AD2607] |  |  |  |
|  | 0.0428 ± 0.0085 µM | CCCCCCCCCCCCCCCCN[C@H](CO)[C@H](O)c1ccc([N+](=O)[O-])cc1 [AD2619] |  | 0.073 ± 0.005 µM | IC90 at 5 days [2]: 42.3 µM; IC50 (human MRC-5 cells): 26.7 µM; Index of selectivity (human MRC-5 cells): 624 |
| 40.4 µM |  | CCCCCCCCCCCCCCCC(=O)N[C@H](CO)[C@H](O)c1ccc(N)cc1 [AD2623] | 81.3 µM |  |  |
|  | 0.0379 ± 0.0021 µM | CCCCCCCCCCCCCCN[C@@H](CO)[C@@H](O)c1ccc([N+](=O)[O-])cc1 [AD2645] |  | 0.104 ± 0.001 µM | IC90 at 5 days [2]: 10.3 µM; IC50 (human MRC-5 cells): 6.1 µM; Index of selectivity (human MRC-5 cells): 161 |
| 4.9 µM |  | CCCCCCCCCCCC(=O)Nc1ccc([C@@H](O)[C@H](N)CO)cc1 [AD2648] | 9.6 µM |  |  |

| IC50 [1, 5] | IC50 [1, 7] | SMILES | IC90 [1, 4] | IC90 [1, 6] | further results |
| --- | --- | --- | --- | --- | --- |
|  | 0.0857 ± 0.0232 µM | CCCCCCNc1ccc([C@@H](O)[C@@H](CO)NCCCCCC)cc1 [AD2651] |  | 0.135 ± 0.019 µM | parasite development, trophozoite stage [3]: complete inhibition of parasite development |
|  | 0.0337 ± 0.0037 µM | CCCCCCCCNc1ccc([C@@H](O)[C@@H](CO)NCCCCCCCC)cc1 [AD2670] |  | 0.069 ± 0.003 µM | parasite development, trophozoite stage [3]: complete inhibition of parasite development |
|  | 1.7 ± 0.2 µM | CCCCCCCCCCCCCCN[C@H](CO)[C@H](O)c1ccc(N)cc1 [AD2672] |  | 2.6 ± 0.65 µM | IC90 at 5 days [2]: 5.9 µM; IC50 (human MRC-5 cells): 3.7 µM; Index of selectivity (human MRC-5 cells): 2 |
|  |  | CCCCCCCCCCCCCCNC(CO)Cc1ccccc1 (centres unmarked) [AD2729] |  |  | reduction of anti-Plasmodium activity by removal of the carbon 3 hydroxyl group ([1]; AD2729 compared with AD2730): 13.5 times; IC50 [1, 8]: 0.258 ± 0.0107 µM; IC90 at 5 days [2]: 9.8 µM; IC50 (human MRC-5 cells): 5.8 µM; Index of selectivity (human MRC-5 cells): 22 |
|  |  | CCCCCCCCCCCCCCN[C@H](CO)[C@H](O)c1ccccc1 [AD2730] |  |  | IC50 [1, 8]: 0.0189 ± 0.0017 µM; IC90 at 5 days [2]: 9.9 µM; IC50 (human MRC-5 cells): 6.1 µM; Index of selectivity (human MRC-5 cells): 322 |
|  | > 33 µM | CCN[C@H](CO)[C@H](O)c1ccc([N+](=O)[O-])cc1 [AD-2212] |  |  |  |
|  | > 50 µM | CCNC(=S)N[C@H](CO)[C@H](O)c1ccc([N+](=O)[O-])cc1 [AD-2215] |  |  |  |
|  | 1.13 ± 0.24 µM | CCCCNC(=S)N[C@H](CO)[C@H](O)c1ccc([N+](=O)[O-])cc1 [AD-2216] |  | 13.9 ± 7.1 µM |  |
|  | 0.574 ± 0.05 µM | CC(C)(C)NC(=S)N[C@H](CO)[C@H](O)c1ccc([N+](=O)[O-])cc1 [AD-2217] |  | 0.958 ± 0.013 µM |  |
|  | 0.78 ± 0.07 µM | CCCCN[C@H](CO)[C@H](O)c1ccc([N+](=O)[O-])cc1 [AD-2493] |  | 5.1 ± 0.15 µM |  |
|  | > 200 µM | CCCCCCCCCCCCCCCCCCCCN[C@H](CO)[C@H](O)c1ccc([N+](=O)[O-])cc1 [AD-2554] |  |  |  |
|  | 0.0171 ± 0.0053 µM | CCCCCCCCCCCCN[C@H](CO)[C@H](O)c1ccc([N+](=O)[O-])cc1 [AD-2617] |  | 0.304 ± 0.007 µM |  |
|  | 3.25 µM | CCCCCCCCCCCCNc1ccc([C@@H](O)[C@@H](CO)NCCCCCCCCCCCC)cc1 [AD-2653] |  | 5.5 µM |  |
|  | 1.3 ± 0.2 µM | CCCCNc1ccc([C@@H](O)[C@@H](CO)NCCCC)cc1 [AD-2664] |  | 2.4 ± 0.7 µM |  |
|  | 1.48 µM | CCCCCCCCCCCCCCN[C@H](CO)[C@H](O)c1ccc(NCC)cc1 [AD-2677] |  | 2.7 µM |  |
|  | 5.8 µM | CCCCCCCCCCCCCCN[C@H](CO)[C@H](O)c1ccc(NC(C)=O)cc1 [AD-2678] |  | 10.6 µM |  |
|  | 3.3 µM | CCCCCCCCCCCCCCN[C@H](CO)[C@H](O)c1ccc(NC(=O)CCCCC)cc1 [AD-2680] |  | 5.5 µM |  |
|  |  | CCCCCCCCCCCCCCN[C@H](C)[C@H](O)c1ccccc1 [AD-2724] |  |  | IC50 [1, 8]: 0.0334 ± 0.0031 µM |
|  |  | CCN(CC)CCCC(C)Nc1ccnc2cc(Cl)ccc12 (centres unmarked) [chloroquine, reference compound] |  |  | IC50 ([1]; FCB1): 0.115 ± 0.025 µM |
